Literature values, collected in US20040062802A1, “Maximizing effectiveness of substances used to improve health and well being” (priority 1998, published 2004).
Like-named read-outs stand apart in the source and are kept apart here.

Key:
[1] = cited from earlier work
[2] = mean, N = 24, cited from earlier work; for AUC0-24 h: 1 mg daily 10 days then 2 mg daily 5 days
[3] = test system: male patients with clinical of BPH; conditions: cited from earlier work; for I-PSS Endpoint / Qmax Endpoint: 24 weeks; for I-PSS Endpoint / Qmax Endpoint / I-PSS Baseline / Qmax Baseline: mean; for I-PSS Baseline / Qmax Baseline: after 2 week placebo run-in
[4] = test system: mouse model; conditions: drug received at the beginning of the sleep phase; cited from earlier work
[5] = test system: HIV; conditions: 200 mg AZT orally every 4 hours for 7 day periods alternating with ddC 0.03 mg/kg orally every 4 hours for 7 day periods; cited from earlier work
[6] = cited from earlier work; remark: listed apart in the source
[7] = test system: bone marrow cells; conditions: mouse, in vivo; cited from earlier work
[8] = 800 mg group versus 400 mg group

COC(=O)C(c1ccccc1)C1CCCCN1 (stereo not shown) [methylphenidate]
plasma profile ([1]; ADD, conventional 10 mg at 7 am and 10 mg at 12 pm, FIG. I solid line): high dosages of the drug would be present in the body throughout the afternoon and early evening
plasma profile ([1]; narcolepsy, conventional 20 mg at 7 am, 10 mg at 12 pm and 10 mg at 5 pm, FIG. II solid line): lower dosages of the drug are present in the patient during the morning hours

COc1cc2nc(N3CCN(C(=O)C4COc5ccccc5O4)CC3)nc(N)c2cc1OC (stereo not shown) [Doxazosin]
AUC0-24 h ([2]; evening dosing (8 pm)): 253.66 ng·h/mL
Cmax ([2]; evening dosing (8 pm)): 15.76 ng/mL
T1/2 ([2]; evening dosing (8 pm)): 18.77 h
Tmax ([2]; evening dosing (8 pm)): 5.60 h
AUC0-24 h ([2]; morning dosing (8 am)): 227.90 ng·h/mL
Cmax ([2]; morning dosing (8 am)): 16.98 ng/mL
T1/2 ([2]; morning dosing (8 am)): 19.52 h
Tmax ([2]; morning dosing (8 am)): 3.46 h
clinical efficacy versus placebo ([3]; at 6 weeks and endpoint): significantly differed from placebo
I-PSS Endpoint ([3]; evening (8 pm) dosing): 11.7
Qmax Endpoint ([3]; evening (8 pm) dosing): 12.30 mL/s
I-PSS Mean Change ([3]; evening (8 pm) dosing): −6.7
I-PSS Responders ([3]; evening (8 pm) dosing): 62.6
Qmax Mean Change ([3]; evening (8 pm) dosing): 1.94 mL/s
Qmax Responders ([3]; evening (8 pm) dosing): 28.4
I-PSS Baseline ([3]; evening (8 pm) group): 18.2
Qmax Baseline ([3]; evening (8 pm) group): 10.49 mL/s
I-PSS Endpoint ([3]; morning (8 am) dosing): 11.0
Qmax Endpoint ([3]; morning (8 am) dosing): 11.84 mL/s
I-PSS Mean Change ([3]; morning (8 am) dosing): −6.9
I-PSS Responders ([3]; morning (8 am) dosing): 57.4
Qmax Mean Change ([3]; morning (8 am) dosing): 1.51 mL/s
Qmax Responders ([3]; morning (8 am) dosing): 29.7
I-PSS Baseline ([3]; morning (8 am) group): 18.5
Qmax Baseline ([3]; morning (8 am) group): 10.17 mL/s

N.N.O=C([O-])C1(C(=O)[O-])CCC1.[Pt+2] [carboplatin, Carboplatin]
marrow toxicity [4]: lowest marrow toxicity
mean survival time [4]: longest mean survival time

Cc1cn([C@H]2C[C@H](N=[N+]=[N-])[C@@H](CO)O2)c(=O)[nH]c1=O [AZT]
outcome of alternating regimen [5]: promising treatment regimen
duration of the effect of AZT ([6]; 400 mg group versus 800 mg group): significantly longer
AZT withdrawn or dose reduced [6, 8]: reduced more frequently
adverse reaction [6, 8]: more frequently observed
toxicity (peripheral blood parameters, proportion of bone marrow cells arrested at the S-phase gate) [7]: significantly less toxic
